Experimental data: patent publication US20240116947A1, “PYRIDO OXAZINE DERIVATIVES AS ALK5 INHIBITORS” (CHIESI FARMACEUTICI S.P.A., priority 2020, published 2024)

Target: human ALK5 (Homo sapiens (Human), UniProt P36897)
Assay: ADP-GLO Kinases assay, inhibition of ALK5 enzymatic activity
Format: biochemical
Conditions: Table 4; potency bins; purified recombinant human ALK5, ADP-Glo, 25° C.; read-out: ALK5 IC50
Experimental: The enzymatic activity of compounds of the present invention was monitored measuring the formation of ADP using the ADP-GLO Kinases assay. Following the incubation of the purified enzyme, a substrate and ATP, the produced ADP was converted into ATP, which in turn was converted into light by Ultra-Glo Luciferase. The luminescent signal positively correlated with ADP amount and kinase activity. Briefly, the kinase reaction was performed by incubating 2.6 nM of the purified, commercially available human ALK5 (recombinant TGF β1 N-term GST-tagged, 80-end), a final concentration of TGFβ1 peptide 94.5 μM (Promega, T36-58) and ultra-pure ATP (Promega V915B). […] All reactions/incubations were performed at 25° C. Compound and ALK5 kinase were mixed and incubated for 15 mins. Reactions were initiated by addition of ATP at a final concentration in the assay of 0.83 μM. After an incubation of 150 min, the reaction was stopped, and ADP production detected with ADP-Glo kit according to manufacturer's indications. The assay was performed in 384-well format and was validated using a selection of reference compounds that was tested in 11 point concentration-response curve.

human ALK5, sequence (P36897 80-503 limits assumed): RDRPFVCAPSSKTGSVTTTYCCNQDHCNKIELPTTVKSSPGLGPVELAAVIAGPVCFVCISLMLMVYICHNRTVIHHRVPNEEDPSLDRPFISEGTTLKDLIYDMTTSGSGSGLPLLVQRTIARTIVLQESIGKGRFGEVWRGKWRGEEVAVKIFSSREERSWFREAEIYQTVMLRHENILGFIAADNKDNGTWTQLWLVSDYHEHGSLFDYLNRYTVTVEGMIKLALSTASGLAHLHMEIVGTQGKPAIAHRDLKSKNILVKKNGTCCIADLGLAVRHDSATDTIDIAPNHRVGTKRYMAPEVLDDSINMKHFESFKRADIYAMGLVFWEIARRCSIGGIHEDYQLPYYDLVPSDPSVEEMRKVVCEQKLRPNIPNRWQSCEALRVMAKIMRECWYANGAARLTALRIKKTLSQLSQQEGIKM

Nc1cc(N2CCOc3cnc(-c4cc(C5CC5)ccc4F)cc32)ccn1 [Example 12, 4-[7-(5-cyclopropyl-2-fluorophenyl)-1H,2H,3H-pyrido[3,4-b][1,4]oxazin-1-yl]pyridin-2-amine]
IC50: 1 to 5 nM

O=C(CCN1CCN(CCC(=O)Nc2cc(N3CCOc4cnc(-c5cc(Cl)ccc5F)cc43)ccn2)CC1)NCCO [Example 35, 3-{4-[2-({4-[7-(5-chloro-2-fluorophenyl)-1H,2H,3H-pyrido[3,4-b][1,4]oxazin-1-yl]pyridin-2-yl}carbamoyl)ethyl]piperazin-1-yl}-N-(2-hydroxyethyl)propanamide]
IC50: < 1 nM

Fc1ccc(Cl)cc1-c1cc2c(cn1)OCCN2c1ccnc2[nH]cnc12 [Example 17, 7-(5-chloro-2-fluorophenyl)-1-{3H-imidazo[4,5-b]pyridin-7-yl}-1H,2H,3H-pyrido[3,4-b][1,4]oxazine]
IC50: 5 to 10 nM

Cc1ccc(F)c(-c2cc3c(cn2)OCCN3c2ccnc(N)c2)c1 [Example 11, 4-[7-(2-fluoro-5-methylphenyl)-1H,2H,3H-pyrido[3,4-b][1,4]oxazin-1-yl]pyridin-2-amine]
IC50: 5 to 10 nM

COC(=O)CC1CN(CCC(=O)Nc2cc(N3CCOc4cnc(-c5cc(Cl)ccc5F)cc43)ccn2)CCN1 (stereo not shown) [Example 48, Methyl 2-{4-[2-({4-[7-(5-chloro-2-fluorophenyl)-1H,2H,3H-pyrido[3,4-b][1,4]oxazin-1-yl]pyridin-2-yl}carbamoyl)ethyl]piperazin-2-yl}acetate]
IC50: < 1 nM

CN1CCC(CCC(=O)Nc2cc(N3CCOc4cnc(-c5cc(Cl)ccc5F)cc43)ccn2)CC1 [Example 32, N-{4-[7-(5-chloro-2-fluorophenyl)-1H,2H,3H-pyrido[3,4-b][1,4]oxazin-1-yl]pyridin-2-yl}-3-(1-methylpiperidin-4-yl)propanamide]
IC50: < 1 nM

O=C(CCN1CCNCC1)Nc1cc(N2CCOc3cnc(-c4cc(Cl)ccc4F)cc32)ccn1 [Example 10, N-{4-[7-(5-chloro-2-fluorophenyl)-1H,2H,3H-pyrido[3,4-b][1,4]oxazin-1-yl]pyridin-2-yl}-3-(piperazin-1-yl)propanamide]
IC50: < 1 nM

CN(CCC(=O)Nc1cc(N2CCOc3cnc(-c4cc(Cl)ccc4F)cc32)ccn1)C1COC1 [Example 19, N-{4-[7-(5-chloro-2-fluorophenyl)-1H,2H,3H-pyrido[3,4-b][1,4]oxazin-1-yl]pyridin-2-yl}-3-[methyl(oxetan-3-yl)amino]propanamide]
IC50: < 1 nM

COC(=O)C1CN(C)CCN1CCC(=O)Nc1cc(N2CCOc3cnc(-c4cc(Cl)ccc4F)cc32)ccn1 (stereo not shown) [Example 49, Methyl 1-[2-({4-[7-(5-chloro-2-fluorophenyl)-1H,2H,3H-pyrido[3,4-b][1,4]oxazin-1-yl]pyridin-2-yl}carbamoyl)ethyl]-4-methylpiperazine-2-carboxylate]
IC50: < 1 nM

CN1CCC(CCC(=O)Nc2cc(N3CCOc4cnc(-c5cc(Cl)ncc5F)cc43)ccn2)CC1 [Example 41, N-{4-[7-(2-chloro-5-fluoropyridin-4-yl)-1H,2H,3H-pyrido[3,4-b][1,4]oxazin-1-yl]pyridin-2-yl}-3-(1-methylpiperidin-4-yl)propanamide]
IC50: < 1 nM

O=C(CCN(CCO)CCO)Nc1cc(N2CCOc3cnc(-c4cc(Cl)ccc4F)cc32)ccn1 [Example 18, 3-[bis(2-hydroxyethyl)amino]-N-{4-[7-(5-chloro-2-fluorophenyl)-1H,2H,3H-pyrido[3,4-b][1,4]oxazin-1-yl]pyridin-2-yl}propanamide]
IC50: < 1 nM

Fc1ccc(Cl)cc1-c1cc2c(cn1)OCCN2c1ccnc2[nH]ncc12 [Example 15, 7-(5-chloro-2-fluorophenyl)-1-{1H-pyrazolo[3,4-b]pyridin-4-yl}-1H,2H,3H-pyrido[3,4-b][1,4]oxazine]
IC50: 1 to 5 nM

Nc1cc(N2CCOc3cnc(-c4cc(F)ccc4F)cc32)ccn1 [Example 4, 4-[7-(2,5-difluorophenyl)-1H,2H,3H-pyrido[3,4-b][1,4]oxazin-1-yl]pyridin-2-amine]
IC50: 5 to 10 nM

Nc1cc(N2CCOc3cnc(-c4cc(Cl)ccc4F)cc32)ccn1 [Example 3, 4-[7-(5-chloro-2-fluorophenyl)-1H,2H,3H-pyrido[3,4-b][1,4]oxazin-1-yl]pyridin-2-amine]
IC50: 1 to 5 nM

CN(CCO)CCC(=O)Nc1cc(N2CCOc3cnc(-c4cc(Cl)ccc4F)cc32)ccn1 [Example 20, N-{4-[7-(5-chloro-2-fluorophenyl)-1H,2H,3H-pyrido[3,4-b][1,4]oxazin-1-yl]pyridin-2-yl}-3-[(2-hydroxyethyl)(methyl)amino] propanamide]
IC50: < 1 nM

O=C(CCN1CCN(CCO)CC1)Nc1cc(N2CCOc3cnc(-c4cc(Cl)ccc4F)cc32)ccn1 [Example 28, N-{4-[7-(5-chloro-2-fluorophenyl)-1H,2H,3H-pyrido[3,4-b][1,4]oxazin-1-yl]pyridin-2-yl}-3-[4-(2-hydroxyethyl)piperazin-1-yl]propanamide]
IC50: < 1 nM

CN(C)CCC(=O)Nc1cc(N2CCOc3cnc(-c4cc(Cl)ccc4F)cc32)ccn1 [Example 9, N-{4-[7-(5-chloro-2-fluorophenyl)-1H,2H,3H-pyrido[3,4-b][1,4]oxazin-1-yl]pyridin-2-yl}-3-(dimethylamino)propanamide]
IC50: < 1 nM

CN1CCN(CCC(=O)Nc2cc(N3CCOc4cnc(-c5cc(Cl)ccc5F)cc43)ccn2)CC1 [Example 14, N-{4-[7-(5-chloro-2-fluorophenyl)-1H,2H,3H-pyrido[3,4-b][1,4]oxazin-1-yl]pyridin-2-yl}-3-(4-methylpiperazin-1-yl)propanamide]
IC50: < 1 nM

O=C(CCN1CCOCC1)Nc1cc(N2CCOc3cnc(-c4cc(Cl)ccc4F)cc32)ccn1 [Example 8, N-{4-[7-(5-chloro-2-fluorophenyl)-1H,2H,3H-pyrido[3,4-b][1,4]oxazin-1-yl]pyridin-2-yl}-3-(morpholin-4-yl)propanamide]
IC50: < 1 nM

CN(CCNS(C)(=O)=O)CCC(=O)Nc1cc(N2CCOc3cnc(-c4cc(Cl)ccc4F)cc32)ccn1 [Example 29, N-{4-[7-(5-chloro-2-fluorophenyl)-1H,2H,3H-pyrido[3,4-b][1,4]oxazin-1-yl]pyridin-2-yl}-3-[(2-methanesulfonamidoethyl)(methyl)amino]propanamide]
IC50: < 1 nM

CN1CC2CC1CN2CC(=O)Nc1cc(N2CCOc3cnc(-c4cc(Cl)ccc4F)cc32)ccn1 (stereo not shown) [Example 52, N-{4-[7-(5-chloro-2-fluorophenyl)-1H,2H,3H-pyrido[3,4-b][1,4]oxazin-1-yl]pyridin-2-yl}-2-{5-methyl-2,5-diazabicyclo[2.2.1]heptan-2-yl}acetamide]
IC50: < 1 nM

CN1CC2(C1)CN(CC(=O)Nc1cc(N3CCOc4cnc(-c5cc(Cl)ccc5F)cc43)ccn1)C2 [Example 53, N-{4-[7-(5-chloro-2-fluorophenyl)-1H,2H,3H-pyrido[3,4-b][1,4]oxazin-1-yl]pyridin-2-yl}-2-{6-methyl-2,6-diazaspiro[3.3]heptan-2-yl}acetamide]
IC50: < 1 nM

CN1CCN(CCC(=O)Nc2cc(N3CCOc4cnc(-c5cc(Cl)ccc5F)cc43)ccn2)CC1=O [Example 22, N-{4-[7-(5-chloro-2-fluorophenyl)-1H,2H,3H-pyrido[3,4-b][1,4]oxazin-1-yl]pyridin-2-yl}-3-(4-methyl-3-oxopiperazin-1-yl)propanamide]
IC50: < 1 nM

CN1CCN(CCC(=O)Nc2cc(N3CCOc4cnc(-c5nc(Cl)ccc5F)cc43)ccn2)CC1 [Example 38, N-{4-[7-(6-chloro-3-fluoropyridin-2-yl)-1H,2H,3H-pyrido[3,4-b][1,4]oxazin-1-yl]pyridin-2-yl}-3-(4-methylpiperazin-1-yl)propanamide]
IC50: < 1 nM

CNC(=O)CCN1CCN(CCC(=O)Nc2cc(N3CCOc4cnc(-c5cc(Cl)ccc5F)cc43)ccn2)CC1 [Example 31, 3-{4-[2-({4-[7-(5-chloro-2-fluorophenyl)-1H,2H,3H-pyrido[3,4-b][1,4]oxazin-1-yl]pyridin-2-yl}carbamoyl)ethyl]piperazin-1-yl}-N-methylpropanamide]
IC50: < 1 nM
